Measured values from publication PMC8799717, “Pharmacological targeting PIKfyve and tubulin as an effective treatment strategy for double-hit lymphoma” (Cell Death Discovery, 2022).

Columns and labels:
Assay in all cases: biochemical
Design in all cases: KINOMEscan active-site-directed competition binding panel, 468 kinases, percent of DMSO control at 1 uM
Conditions in all cases: KINOMEscan binding, percent of DMSO control; read-out: Ctrl%
[1] = biological target: T1, ABL1(Q252H)-nonphosphorylated (Homo sapiens, UniProt P00519, Q252H)
T1 construct: nonphosphorylated

ALK(C1156Y) = ALK(C1156Y) (Homo sapiens, UniProt Q9UM73, C1156Y)
CAMK1B = biological target: T2, CAMK1B (Homo sapiens, UniProt Q6P2M8)
T2 construct: gene PNCK

CAMK2A = CAMK2A (Homo sapiens, UniProt Q9UQM7)
Chain of CAMK2A (Q9UQM7 whole entry): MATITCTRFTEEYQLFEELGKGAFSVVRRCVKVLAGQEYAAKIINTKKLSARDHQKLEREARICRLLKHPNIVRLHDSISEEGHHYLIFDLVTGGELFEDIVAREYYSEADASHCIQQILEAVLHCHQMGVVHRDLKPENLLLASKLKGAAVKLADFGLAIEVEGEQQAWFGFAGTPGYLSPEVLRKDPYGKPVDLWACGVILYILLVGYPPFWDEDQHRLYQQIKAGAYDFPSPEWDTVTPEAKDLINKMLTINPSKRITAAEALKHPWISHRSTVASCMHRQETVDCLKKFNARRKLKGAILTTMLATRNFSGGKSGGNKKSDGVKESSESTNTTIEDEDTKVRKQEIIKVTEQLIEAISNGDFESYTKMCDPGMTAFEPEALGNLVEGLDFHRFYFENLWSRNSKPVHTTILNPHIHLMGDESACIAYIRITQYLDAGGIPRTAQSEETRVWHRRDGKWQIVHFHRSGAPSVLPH

CDKL2 = CDKL2 (Homo sapiens, UniProt Q92772)
Chain of CDKL2 (Q92772 whole entry): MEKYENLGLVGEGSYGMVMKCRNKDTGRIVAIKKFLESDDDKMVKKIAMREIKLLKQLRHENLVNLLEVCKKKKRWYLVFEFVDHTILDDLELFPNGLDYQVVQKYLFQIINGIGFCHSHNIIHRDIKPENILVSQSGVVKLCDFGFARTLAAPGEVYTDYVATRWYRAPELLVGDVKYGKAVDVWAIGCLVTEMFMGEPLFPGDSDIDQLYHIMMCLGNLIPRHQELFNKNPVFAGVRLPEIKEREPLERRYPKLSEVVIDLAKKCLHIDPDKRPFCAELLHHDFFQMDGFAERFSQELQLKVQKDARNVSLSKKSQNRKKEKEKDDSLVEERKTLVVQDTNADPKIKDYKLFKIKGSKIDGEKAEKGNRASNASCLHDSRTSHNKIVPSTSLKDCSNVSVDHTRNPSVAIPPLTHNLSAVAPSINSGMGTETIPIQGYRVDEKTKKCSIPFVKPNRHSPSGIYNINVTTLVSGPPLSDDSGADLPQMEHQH

DMPK2 = biological target: T3, DMPK2 (Homo sapiens, UniProt Q6DT37)
T3 construct: gene CDC42BPG

FLT3(D835V) = FLT3(D835V) (Homo sapiens, UniProt P36888, D835V)
FLT3(N841I) = FLT3(N841I) (Homo sapiens, UniProt P36888, N841I)
GRK2 = GRK2 (Homo sapiens, UniProt P25098)
HIPK3 = HIPK3 (Homo sapiens, UniProt Q9H422)
Chain of HIPK3 (Q9H422 whole entry): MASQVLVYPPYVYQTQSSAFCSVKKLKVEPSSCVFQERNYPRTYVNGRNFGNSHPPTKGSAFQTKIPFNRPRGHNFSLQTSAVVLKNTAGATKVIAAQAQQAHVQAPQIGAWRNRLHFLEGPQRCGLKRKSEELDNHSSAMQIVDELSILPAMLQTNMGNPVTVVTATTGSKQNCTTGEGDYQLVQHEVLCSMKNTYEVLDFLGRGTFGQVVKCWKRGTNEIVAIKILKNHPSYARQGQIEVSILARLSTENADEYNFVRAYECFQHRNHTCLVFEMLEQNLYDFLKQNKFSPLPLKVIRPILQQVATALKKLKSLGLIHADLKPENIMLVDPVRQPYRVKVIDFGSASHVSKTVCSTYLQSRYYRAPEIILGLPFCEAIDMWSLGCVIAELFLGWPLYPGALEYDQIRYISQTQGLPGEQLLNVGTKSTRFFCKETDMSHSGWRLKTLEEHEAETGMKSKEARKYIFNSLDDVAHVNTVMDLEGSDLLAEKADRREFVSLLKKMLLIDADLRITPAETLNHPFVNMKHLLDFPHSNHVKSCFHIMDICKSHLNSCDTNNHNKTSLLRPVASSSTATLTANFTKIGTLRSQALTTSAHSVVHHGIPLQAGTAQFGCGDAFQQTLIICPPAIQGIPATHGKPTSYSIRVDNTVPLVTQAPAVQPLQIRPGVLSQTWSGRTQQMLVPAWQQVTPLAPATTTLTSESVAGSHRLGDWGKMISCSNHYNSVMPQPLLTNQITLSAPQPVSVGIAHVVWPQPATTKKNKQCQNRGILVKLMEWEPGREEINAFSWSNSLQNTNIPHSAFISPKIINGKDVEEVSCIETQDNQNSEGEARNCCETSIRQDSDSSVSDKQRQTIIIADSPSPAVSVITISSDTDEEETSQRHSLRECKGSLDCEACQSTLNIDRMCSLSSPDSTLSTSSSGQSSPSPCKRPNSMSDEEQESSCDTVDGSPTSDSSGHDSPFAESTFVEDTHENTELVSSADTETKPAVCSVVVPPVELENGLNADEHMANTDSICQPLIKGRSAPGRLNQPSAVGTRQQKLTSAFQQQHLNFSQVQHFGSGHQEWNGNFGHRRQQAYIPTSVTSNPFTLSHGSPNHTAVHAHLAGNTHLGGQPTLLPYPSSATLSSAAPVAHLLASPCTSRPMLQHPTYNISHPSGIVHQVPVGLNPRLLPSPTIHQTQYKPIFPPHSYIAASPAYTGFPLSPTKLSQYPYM

MEK6 = biological target: T4, MEK6 (Homo sapiens, UniProt P52564)
T4 construct: gene MAP2K6

MET = MET (Homo sapiens, UniProt P08581)
MTOR = MTOR (Homo sapiens, UniProt P42345)
MYLK = MYLK (Homo sapiens, UniProt Q15746)
MYLK4 = MYLK4 (Homo sapiens, UniProt Q86YV6)
NEK10 = NEK10 (Homo sapiens, UniProt Q6ZWH5)
PDGFRB = PDGFRB (Homo sapiens, UniProt P09619)
PIK3CA(M1043I) = PIK3CA(M1043I) (Homo sapiens, UniProt P42336, M1043I)
QSK = biological target: T5, QSK (Homo sapiens, UniProt Q9Y2K2)
T5 construct: gene SIK3

S6K1 = biological target: T6, S6K1 (Homo sapiens, UniProt P23443)
T6 construct: gene RPS6KB1
T6 sequence (P23443 whole entry): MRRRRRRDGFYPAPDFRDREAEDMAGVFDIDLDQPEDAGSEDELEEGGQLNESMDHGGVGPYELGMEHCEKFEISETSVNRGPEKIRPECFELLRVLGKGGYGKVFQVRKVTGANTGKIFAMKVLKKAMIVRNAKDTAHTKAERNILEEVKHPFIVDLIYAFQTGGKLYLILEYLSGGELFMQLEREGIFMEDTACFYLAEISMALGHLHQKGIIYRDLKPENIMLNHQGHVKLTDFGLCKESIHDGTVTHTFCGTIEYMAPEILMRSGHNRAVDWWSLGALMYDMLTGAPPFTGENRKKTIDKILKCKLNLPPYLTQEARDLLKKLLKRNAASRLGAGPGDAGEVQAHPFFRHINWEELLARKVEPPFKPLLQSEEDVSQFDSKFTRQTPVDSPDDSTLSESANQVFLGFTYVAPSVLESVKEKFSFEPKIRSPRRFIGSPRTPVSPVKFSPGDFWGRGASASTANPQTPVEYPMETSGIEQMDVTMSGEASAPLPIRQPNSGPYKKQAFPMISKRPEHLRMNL

SNRK = SNRK (Homo sapiens, UniProt Q9NRH2)
Chain of SNRK (Q9NRH2 whole entry): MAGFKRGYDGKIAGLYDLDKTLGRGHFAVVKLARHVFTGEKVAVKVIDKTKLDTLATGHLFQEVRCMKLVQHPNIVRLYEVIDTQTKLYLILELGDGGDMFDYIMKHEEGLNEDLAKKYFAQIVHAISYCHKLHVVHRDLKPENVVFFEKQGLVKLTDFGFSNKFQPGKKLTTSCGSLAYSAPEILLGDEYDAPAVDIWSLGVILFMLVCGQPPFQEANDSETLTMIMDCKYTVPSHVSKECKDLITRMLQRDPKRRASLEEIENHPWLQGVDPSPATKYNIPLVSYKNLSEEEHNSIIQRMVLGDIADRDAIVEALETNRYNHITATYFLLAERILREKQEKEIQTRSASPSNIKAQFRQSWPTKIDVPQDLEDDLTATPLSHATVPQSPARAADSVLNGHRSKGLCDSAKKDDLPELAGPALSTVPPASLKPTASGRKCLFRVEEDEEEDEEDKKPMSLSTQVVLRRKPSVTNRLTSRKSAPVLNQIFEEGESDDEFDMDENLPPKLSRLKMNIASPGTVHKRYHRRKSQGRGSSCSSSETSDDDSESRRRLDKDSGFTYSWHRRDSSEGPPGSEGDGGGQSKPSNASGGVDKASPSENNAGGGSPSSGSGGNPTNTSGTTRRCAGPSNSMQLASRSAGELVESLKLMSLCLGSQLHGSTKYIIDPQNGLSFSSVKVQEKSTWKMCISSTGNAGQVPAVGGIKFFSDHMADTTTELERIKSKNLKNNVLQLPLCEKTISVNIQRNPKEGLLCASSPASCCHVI

TEC = TEC (Homo sapiens, UniProt P42680)
Chain of TEC (P42680 whole entry): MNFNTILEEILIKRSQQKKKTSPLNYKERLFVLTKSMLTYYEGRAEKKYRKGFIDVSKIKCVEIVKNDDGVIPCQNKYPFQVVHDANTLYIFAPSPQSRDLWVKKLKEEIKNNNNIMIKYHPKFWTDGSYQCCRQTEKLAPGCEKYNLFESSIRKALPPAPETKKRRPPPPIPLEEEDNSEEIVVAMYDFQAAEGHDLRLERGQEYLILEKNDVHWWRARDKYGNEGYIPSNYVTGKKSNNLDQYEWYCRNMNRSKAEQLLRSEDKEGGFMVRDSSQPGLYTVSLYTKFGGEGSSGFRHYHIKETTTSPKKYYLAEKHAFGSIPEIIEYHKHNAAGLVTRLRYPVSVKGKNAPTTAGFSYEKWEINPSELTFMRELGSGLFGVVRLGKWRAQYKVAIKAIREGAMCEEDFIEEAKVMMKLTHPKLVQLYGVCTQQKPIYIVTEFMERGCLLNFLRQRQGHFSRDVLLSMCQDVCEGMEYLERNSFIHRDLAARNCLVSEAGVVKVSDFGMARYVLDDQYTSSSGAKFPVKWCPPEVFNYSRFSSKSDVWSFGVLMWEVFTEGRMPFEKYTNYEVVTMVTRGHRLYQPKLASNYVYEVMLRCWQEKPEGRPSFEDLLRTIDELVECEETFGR

TRKC = biological target: T7, TRKC (Homo sapiens, UniProt Q16288)
T7 construct: gene NTRK3

ZAK = biological target: T8, ZAK (Homo sapiens, UniProt Q9NYL2)
T8 construct: gene MAP3K20
T8 sequence (Q9NYL2 whole entry): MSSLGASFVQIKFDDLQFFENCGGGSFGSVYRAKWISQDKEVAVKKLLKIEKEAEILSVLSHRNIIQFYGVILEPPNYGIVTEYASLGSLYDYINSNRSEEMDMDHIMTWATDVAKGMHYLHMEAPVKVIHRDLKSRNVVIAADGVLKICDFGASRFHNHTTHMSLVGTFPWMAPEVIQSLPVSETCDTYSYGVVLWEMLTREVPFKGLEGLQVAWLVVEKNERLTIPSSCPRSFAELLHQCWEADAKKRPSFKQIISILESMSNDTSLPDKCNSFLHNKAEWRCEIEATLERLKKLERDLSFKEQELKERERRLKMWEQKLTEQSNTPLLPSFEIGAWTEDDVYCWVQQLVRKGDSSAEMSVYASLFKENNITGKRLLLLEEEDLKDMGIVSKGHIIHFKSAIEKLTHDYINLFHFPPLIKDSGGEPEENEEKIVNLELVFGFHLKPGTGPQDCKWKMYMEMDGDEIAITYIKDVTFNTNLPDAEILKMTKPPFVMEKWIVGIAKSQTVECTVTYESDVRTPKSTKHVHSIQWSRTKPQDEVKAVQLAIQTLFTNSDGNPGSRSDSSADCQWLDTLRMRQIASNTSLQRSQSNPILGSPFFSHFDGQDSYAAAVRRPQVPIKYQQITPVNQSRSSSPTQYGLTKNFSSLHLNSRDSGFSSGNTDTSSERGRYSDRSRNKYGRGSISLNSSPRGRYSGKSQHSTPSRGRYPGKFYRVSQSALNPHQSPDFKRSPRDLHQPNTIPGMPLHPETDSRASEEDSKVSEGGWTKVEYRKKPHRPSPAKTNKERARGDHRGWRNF

**Q.** What does the source list for `Cc1ccc(NC(=O)c2cccc(C(F)(F)F)c2)cc1Nc1cc(-c2cccnc2)nc2[nH]ccc12` [HZX-02-059]?
**A.** remaining binding at 1 µM [1]: 30%; remaining binding at 1 µM (ALK(C1156Y)): 99%; remaining binding at 1 µM (CAMK1B): 98%; remaining binding at 1 µM (CAMK2A): 98%; remaining binding at 1 µM (CDKL2): 99%; remaining binding at 1 µM (DMPK2): 99%; remaining binding at 1 µM (FLT3(D835V)): 100%; remaining binding at 1 µM (FLT3(N841I)): 88%; remaining binding at 1 µM (GRK2): 100%; remaining binding at 1 µM (HIPK3): 94%; remaining binding at 1 µM (MEK6): 88%; remaining binding at 1 µM (MET): 94%; remaining binding at 1 µM (MTOR): 99%; remaining binding at 1 µM (MYLK): 100%; remaining binding at 1 µM (MYLK4): 90%; remaining binding at 1 µM (NEK10): 100%; remaining binding at 1 µM (PDGFRB): 3.3%; remaining binding at 1 µM (PIK3CA(M1043I)): 92%; remaining binding at 1 µM (QSK): 66%; remaining binding at 1 µM (S6K1): 95%; remaining binding at 1 µM (SNRK): 71%; remaining binding at 1 µM (TEC): 96%; remaining binding at 1 µM (TRKC): 100%; remaining binding at 1 µM (ZAK): 17%
